Test results reported in ChEMBL document CHEMBL1139638, “Synthesis and biological evaluation of chalcones and their derived pyrazoles as potential cytotoxic agents” (Bioorg Med Chem Lett, 2005).
“And” between values parts separate entries of the source, which are not always exact repeats. Equal entries are not always repeated.

Legend:
HEp-2 = experiment: Antiproliferative activity against human cancer Hep-2 cell line; type: functional, cell-based
HOP-62 = experiment: Antiproliferative activity against human cancer HOP-62 cell line; type: functional, cell-based
OVCAR-5 = experiment: Antiproliferative activity against human cancer OVCAR-5 cell line; type: functional, cell-based
HCT-15 = experiment: Antiproliferative activity against human colon cancer HCT-15 cell line; type: functional, cell-based
SiHa = experiment: Antiproliferative activity against human SIHA cell line; type: functional, cell-based
HT-29 = experiment: Antiproliferative activity against Colon cancer HT-29 cell line; type: functional, cell-based, Homo sapiens
A549 = experiment: Antiproliferative activity against human cancer A-549 cell line; type: functional, cell-based
SW-620 [1] = experiment: Inhibitory concentration against human colon cancer SW-620 cell line; type: functional, cell-based
PC-3 = experiment: Antiproliferative activity against prostate cancer PC-3 cell line; type: functional, cell-based, Homo sapiens
DU-145 = experiment: Antiproliferative activity against human cancer DU-145 cell line; type: functional, cell-based
SNB-78 = experiment: Antiproliferative activity against human cancer SNB-78 cell line; type: functional, cell-based
SK-OV-3 = experiment: Antiproliferative activity against human cancer SKOV-3 cell line; type: functional, cell-based
SW-620 [2] = experiment: Antiproliferative activity against colon cancer SW-620 cell line; type: functional, cell-based; details: Homo sapiens

SMILES	IC50 (HEp-2) [µM]	IC50 (HOP-62; Homo sapiens, HOP-62) [µM]	IC50 (OVCAR-5; Homo sapiens, OVCAR-5) [µM]	IC50 (HCT-15) [µM]	IC50 (SiHa; Homo sapiens, SiHa) [µM]	IC50 (HT-29; Homo sapiens, HT-29) [µM]	IC50 (A549; Homo sapiens, A549) [µM]	IC50 (SW-620 [1]; Homo sapiens, SW-620) [µM]	IC50 (PC-3; Homo sapiens, PC-3) [µM]	IC50 (DU-145; Homo sapiens, DU-145) [µM]	IC50 (SNB-78; Homo sapiens, SNB-78) [µM]	also measured
COc1cc(/C=C/C(=O)c2cc(OC)c(OC)c(OC)c2)cc(OC)c1OC	7.75	10	9.23	6.55	8.55							
COc1ccc(C2NN=C(c3cc(OC)c(OC)c(OC)c3)C2O)cc1OC (stereo not drawn)		10.7	8.76	12		8.43	10	8.63				
COc1cc(C2=NNC(c3ccc(Cl)cc3)C2O)cc(OC)c1OC (stereo not drawn)		20.4	8.65	9.45	56.4	11.1	15.1	8.41	34.6			
COc1cc(-c2cc(-c3cc(OC)c(OC)c(OC)c3)[nH]n2)cc(OC)c1OC	6.43		9.95	6.01	25	5.62	7.58	10	13.3	35.1	22	
COc1cc(C2=NNC(c3ccc(F)cc3)C2O)cc(OC)c1OC (stereo not drawn)		6.55	7.15	8.45		6.01	5.72	5.85				
COc1cc(-c2nn(C(C)=O)c(-c3ccc4c(c3)OCO4)c2OC(C)=O)cc(OC)c1OC	61.6	18.4		8.9	58.1	15.6			18.1	48	33	IC50 (SK-OV-3): 39.1 µM
COc1cccc(C(=O)/C=C/c2cc(OC)c(OC)c(OC)c2)c1	13.7	10.1	9	4.9	10.9	7.08	8.07		11.6	14.9	10	
COc1ccc(-c2cc(-c3cc(OC)c(OC)c(OC)c3)[nH]n2)cc1			9.54		15.9			5.15	15.8	24		IC50 (HT-29; ht-29): 2.95 µM and 0.62 µM; IC50 (A549; a549): 4.35 µM and 1.01 µM; IC50 (DU-145; du-145): 27 µM; IC50 (HOP-62; hop-62): 4.81 µM and 0.65 µM; IC50 (SNB-78; snb-78): 21 µM and 50 µM; IC50 (OVCAR-5; ovcar-5): 7.85 µM; IC50 (PC-3; pc-3): 11.1 µM; IC50 (SW-620 [1]; sw-620): 3.41 µM; IC50 (SiHa; siha): 14.5 µM
COc1cc(C(=O)/C=C/c2ccc(Cl)cc2)cc(OC)c1OC	12	26.9	16.8	24	40				24.1	28.1	25.4	
COc1ccc(-c2cc(-c3cc(OC)c(OC)c(OC)c3)nn2C(C)=O)cc1OC		22.1	16.7	16	54.8	10.4	10	16.1				
COc1cc(/C=C/C(=O)c2ccc(OC(C)=O)cc2)cc(OC)c1OC	13.1	56.1		7.75	13.3	8.37	12					
COc1cccc(C2NN=C(c3cc(OC)c(OC)c(OC)c3)C2O)c1 (stereo not drawn)		8.1	7.05	7.85		5.95	7.2	7.35	28			
COc1cc(-c2cc(-c3ccc(F)cc3)[nH]n2)cc(OC)c1OC	3.81	0.56	6.45	0.48	1.08	4.75	3.8	5.9	8.93	3.87	22.4	
COc1ccc(/C=C/C(=O)c2cc(OC)c(OC)c(OC)c2)cc1OC	6.15	8.12	8.3	7.95	9.35	6.64	6.9	5.8	7.85	9.21	22.8	IC50 (SK-OV-3): 6.09 µM
COc1ccc(-c2cc(-c3cc(OC)c(OC)c(OC)c3)[nH]n2)cc1OC	8.41	0.93	4.4	0.25	3.63	0.47	0.87	0.23	2.64			
COc1ccc(C2NN=C(c3cc(OC)c(OC)c(OC)c3)C2O)cc1 (stereo not drawn)	7.81	0.94	13	0.96	20.1	0.96	1.07	2.67	15.2			
COc1cc(C(=O)/C=C/c2cc(OC)c(OC)c(OC)c2)ccc1O	6.01	20.2		7.75	40.4	20.2	19.2					
COc1cc(C(=O)/C=C/c2cc(OC)c(OC)c(OC)c2)ccc1OC(C)=O	6.95	9.2		7.75	33	10.5	15.6					IC50 (SK-OV-3): 8.35 µM
COc1cc(C(=O)/C=C/c2ccc3c(c2)OCO3)cc(OC)c1OC	10.1	9.61	5.65	23.7	12.8				11.7	19.8	16.7	
COc1cc(C(=O)/C=C/c2ccccc2)cc(OC)c1OC	7.55	20.5	8.9	8.77	36.5	14.4	21.3		41.1	25.4	22.8	IC50 (SW-620 [2]): 16 µM; IC50 (SK-OV-3): 21 µM
COc1cc(-c2cc(-c3ccc(Cl)cc3)[nH]n2)cc(OC)c1OC		12.3	8.61	6.45		8.09	15.8	4.96			14	
COc1cc(C2=NNC(c3ccc4c(c3)OCO4)C2O)cc(OC)c1OC (stereo not drawn)	40	20.3	6.81		43	5.89	6.74	6.75	34.5	34.7	53.7	
COc1cc(-c2cc(-c3ccc4c(c3)OCO4)[nH]n2)cc(OC)c1OC	34	13.5	33	15.6	10	6.01	8.85	9.25	9.55	8.56	74	
COc1cc(C2=NNC(c3cc(OC)c(OC)c(OC)c3)C2O)cc(OC)c1OC (stereo not drawn)		20.4	20.6	8.35	83	7.41	15.6	13.6	108	94.1		
COc1cc(/C=C/C(=O)c2ccccc2)cc(OC)c1OC	11.9	16.6		15.8	20.8	12	8.96	8.45				IC50 (SK-OV-3): 56.5 µM
COc1cc(C(=O)/C=C/c2ccc(F)cc2)cc(OC)c1OC	10	24.7	18.3	11.7	7.92				11.7	13.3	13.8	
